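In this assay, cells in 96-well plates receive the compound at five concentrations for 48 hours. Endpoints are linearly interpolated between the surrounding concentrations. At the GI50, growth is halved.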 Activity calls are given as the source filed them. Rule as the data show it: active = GI50 up to about 1.1 µM and inactive = higher.
Key:
Assay in all cases: DTP human tumour cell line panel, 48 h
786-0 = system: 786-0
A498 = system: A498
A549 = system: A549
ACHN = system: ACHN
CAKI-1 = system: CAKI-1
CCRF-CEM = system: CCRF-CEM
COLO 205 = system: COLO 205
DU-145 = system: DU-145
EKVX = system: EKVX
HCT-116 = system: HCT-116
HCT-15 = system: HCT-15
HL-60 = system: HL-60
HOP-62 = system: HOP-62
HOP-92 = system: HOP-92
HT-29 = system: HT-29
IGROV-1 = system: IGROV-1
K562 = system: K562
KM12 = system: KM12
LOX IMVI = system: LOX IMVI
M14 = system: M14
MCF7 = system: MCF7
MDA-MB-231 = system: MDA-MB-231
MDA-MB-435 = system: MDA-MB-435
MOLT-4 = system: MOLT-4
Malme-3M = system: Malme-3M
NCI-H226 = system: NCI-H226
NCI-H23 = system: NCI-H23
NCI-H460 = system: NCI-H460
NCI-H522 = system: NCI-H522
NCI/ADR-RES = system: NCI/ADR-RES
OVCAR-3 = system: OVCAR-3
OVCAR-4 = system: OVCAR-4
OVCAR-5 = system: OVCAR-5
OVCAR-8 = system: OVCAR-8
PC-3 = system: PC-3
RPMI-8226 = system: RPMI-8226
RXF 393 = system: RXF 393
SF-268 = system: SF-268
SF-295 = system: SF-295
SF-539 = system: SF-539
SK-MEL-28 = system: SK-MEL-28
SK-MEL-5 = system: SK-MEL-5
SN12C = system: SN12C
SNB-19 = system: SNB-19
SNB-75 = system: SNB-75
SR = system: SR
SW-620 = system: SW-620
T47D = system: T47D
TK-10 = system: TK-10
U-251 = system: U-251
UACC-257 = system: UACC-257
UACC-62 = system: UACC-62
UO-31 = system: UO-31
HCC 2998 = system: HCC 2998
Hs-578T = system: Hs-578T
MDA-N = system: MDA-N
SK-MEL-2 = system: SK-MEL-2
SK-OV-3 = system: SK-OV-3

Measured: GI50

O=C(NC1C(=O)NC(CCc2ccccc2)NC1=O)OCc1ccccc1 (centres undefined)
inactive: 786-0 > 100 µM | A498 > 100 µM | A549 > 100 µM | ACHN > 100 µM | CAKI-1 > 100 µM | CCRF-CEM > 100 µM | COLO 205 > 100 µM | DU-145 > 100 µM | EKVX > 100 µM | HCT-116 > 100 µM | HL-60 > 100 µM | HOP-62 > 100 µM | HOP-92 > 100 µM | HT-29 > 100 µM | IGROV-1 > 100 µM | K562 > 100 µM | KM12 > 100 µM | LOX IMVI > 100 µM | M14 > 100 µM | MCF7 > 100 µM | MDA-MB-231 > 100 µM | MDA-MB-435 > 100 µM | MOLT-4 > 100 µM | Malme-3M > 100 µM | NCI-H226 > 100 µM | NCI-H23 > 100 µM | NCI-H460 > 100 µM | NCI-H522 > 100 µM | NCI/ADR-RES > 100 µM | OVCAR-3 > 100 µM | OVCAR-4 > 100 µM | OVCAR-5 > 100 µM | OVCAR-8 > 100 µM | PC-3 > 100 µM | RPMI-8226 > 100 µM | RXF 393 > 100 µM | SF-268 > 100 µM | SF-295 > 100 µM | SF-539 > 100 µM | SK-MEL-28 > 100 µM | SK-MEL-5 > 100 µM | SN12C > 100 µM | SNB-19 > 100 µM | SNB-75 > 100 µM | SR > 100 µM | SW-620 > 100 µM | T47D > 100 µM | TK-10 > 100 µM | U-251 > 100 µM | UACC-257 > 100 µM | UACC-62 > 100 µM | UO-31 > 100 µM
> 100 µM: HCT-15

O=C1OC[C@@H]2Cc3c([nH]c4ccccc34)[C@@H](c3cc(O)c(O)c(O)c3)N12
inactive: 786-0 20.6 µM | A498 12 µM | A549 > 100 µM | ACHN 31.2 µM | CAKI-1 8.67 µM | CCRF-CEM 12.6 µM | COLO 205 23.4 µM | DU-145 68.2 µM | EKVX 44.5 µM | HCC 2998 48.1 µM | HCT-116 25.3 µM | HL-60 2.72 µM | HOP-62 21.4 µM | HOP-92 > 100 µM | HT-29 31 µM | Hs-578T 15.7 µM | IGROV-1 25 µM | K562 3.91 µM | KM12 44.5 µM | M14 15.2 µM | MCF7 21.2 µM | MDA-MB-231 20.7 µM | MDA-MB-435 2.69 µM | MDA-N 5.97 µM | MOLT-4 32.6 µM | Malme-3M 4.37 µM | NCI-H226 13.5 µM | NCI-H23 29.4 µM | NCI-H460 37.8 µM | NCI-H522 5.09 µM | NCI/ADR-RES 21.8 µM | OVCAR-4 12.9 µM | OVCAR-5 19.7 µM | OVCAR-8 16.4 µM | PC-3 31.3 µM | RPMI-8226 27.5 µM | RXF 393 18.9 µM | SF-268 34.9 µM | SF-295 2.57 µM | SF-539 18.9 µM | SK-MEL-28 17.3 µM | SK-MEL-2 3.14 µM | SK-MEL-5 8.39 µM | SK-OV-3 > 100 µM | SN12C 26.9 µM | SNB-19 24 µM | SNB-75 3.29 µM | SR 13.9 µM | SW-620 21.3 µM | T47D 37 µM | TK-10 41.5 µM | U-251 25.3 µM | UACC-257 2.99 µM | UACC-62 8.93 µM | UO-31 27.3 µM
31 µM: HCT-15

CC[C@@H](CCCCC1CC[C@H]2CC(=O)C[C@@H]12)OC (some centres undefined)
inactive: EKVX > 100 µM | HL-60 36 µM | HOP-62 > 100 µM | Hs-578T > 100 µM | K562 33.7 µM | KM12 > 100 µM | M14 > 100 µM | MDA-MB-435 > 100 µM | MDA-N > 100 µM | Malme-3M > 100 µM | OVCAR-4 > 100 µM | PC-3 > 100 µM | RPMI-8226 > 100 µM | SR > 100 µM | UACC-62 > 100 µM

Source: ChEMBL document CHEMBL1201862, “PubChem BioAssay data set” (2004)
